These results are taken from patent publication US7674612B2, “Infectious, chimeric hepatitis C virus, methods of producing the same and methods of use thereof” (The Rockefeller University, priority 2005, dated 2010).

What all share (type): cell-based, hepatitis C virus
One experiment deals with HCVcc (FL-J6/JFH++). The experiment is described as follows: Drug inhibition of HCVcc RNA replication in infected Huh-7.5 cells (Taqman). The note with it: 48 hour post-infection; Huh-7.5 cells infected with FL-J6/JFH++; HCVcc RNA by Taqman. As to the method: Parallel cultures of Huh-7.5 cells were infected with FL-J6/JFH++ for 6 hours. Following removal of the inocula, cells were washed with PBS and fed with complete growth medium containing the indicated concentrations of antiviral drugs or a DMSO carrier control. RNAs were extracted after 2 days and the amount of accumulated HCVcc RNA quantitated by Taqman.
A panel of experimental HCV antiviral compounds were examined for their ability to inhibit RNA replication at 48 hour post-infection with HCVcc. One of these compounds, 2′-C-methyladenosine (Merck) is a nucleoside analog that inhibits the HCV RNA polymerase. Three other compounds (PI-1, Vertex; BILN2061, Boerhinger Ingelheim; and SCH6, Schering-Plough) target the serine protease activity of NS3 by competitive binding. […] For the polymerase inhibitor, the higher specific activity is likely due to the fact that we measured the accumulation of nascent RNAs post-infection, whereas replicon-based assays examine the decay of RNA after inhibiting established replication. The reduced activities of the protease inhibitors likely reflect reduced affinities of these drugs, developed to genotype 1 proteases, to bind to the JFH NS3 protein.
A general note: Quantitative PCR measures a nucleic acid by following its amplification.

A further experiment deals with HCVcc. The experiment is described as follows: Effect of culture additives on HCVcc production (TCID50 assay). On the procedure:
The procedure for immunohistochemical staining for NS5A has been adapted to determine the infectious virus concentration within samples. In one system, virus-containing samples were subjected to serial 10-fold dilutions (typically, 10^−1 to 10^−6) in complete growth medium. Each dilution was then used to infect multiple wells of Huh-7.5 cells seeded in 96-well plates. Following 2 or 3 day incubation, the cells are fixed and subjected to immunohistochemical staining for NS5A expression, as above. The assay plate was then scored for the number of infected wells (i.e. at least one infected cell per well) for each dilution (FIG. 3) and the virus titer was then calculated as the 50% end-point tissue-culture infectious dose per ml (TCID50/ml) according to the statistical method of Reed and Muench (Am. J. Hyg. 27:493-497 (1938)). The sensitivity of this assay was determined by volume of the lowest dilution and the number of replicates tested, and was typically 15.8 TCID50s/ml.
It was of interest to ascertain culturing conditions that increase the titer of infectious HCVcc. A large number of cell culture conditions were tested for their effect on HCVcc production. These included the choice of cell culture media, amount and type of fetal calf serum, as well as the addition of various additive compounds. […] For example, the following titers were recorded: 3.10×10^6 TCID50 (25 mM N-acetylcysteine) vs. 1.06×10^6 TCID50 (5 mM N-acetylcysteine) vs. 2.65×10^5 TCID50 (no N-acetylcysteine). Thus, the use of this compound in HCV-containing cell cultures permits a significant increase in yield of infectious HCVcc. Conditions have also been established for serum-free propagation of Huh-7.5 cells and HCVcc infection and production. These conditions include, but are not limited to, Dulbecco's Modified Eagle's Medium (DMEM)/F12 medium containing 10 μg/ml transferrin, 2 μg/ml insulin, 7.6 μM free fatty acids, 0.3 μM selenium, 0.1 μM hydrocortisone, 0.20% bovine serum albumin, and 20 ng/ml epidermal growth factor.

Another experiment concerns HCVcc (FL-J6/JFH). The experiment in a line: Blocking of HCVcc infection of naïve Huh-7.5 by soluble recombinant CD81 or CD9 (NS5A immunostaining). The note with it: 10 μg/ml, 1 hour at 37° C., naïve Huh-7.5, day 3. On the procedure: A) Independent samples of FL-J6/JFH++ (3.16×10^4 TCID50/ml) were mixed with the indicated amounts of recombinant human monoclonal antibodies (IgGl) against HCV E2 (open circles) or dengue-3 E proteins (filled triangle). Following a 1 hour incubation at 37° C., the virus titers of each sample were determined as described for FIG. 3. Shown are the average±s.d. of three independent samples. The amount of input virus is indicated by the dashed line. B) Samples of FL-J6/JFH were incubated for 1 hour at 37° C. with 10 μg/ml of soluble recombinant CD81 or CD9 and used to infect naïve Huh-7.5. Infections were monitored at day 3 by immunostaining as described in FIG. 2B. C). FL-J6/JFH was used to infect standard HepG2 cells or HepG2 cells engineered to express human CD81. Infections were monitored as described in FIG. 2B.
To further examine the role of E2 in HCVcc entry, virus was preincubated with a recombinant form of the large extracellular loop from CD81, which binds E2 and acts as a receptor for HCV. […] In addition, the role of CD81 in mediating HCVcc entry was examined by infecting HepG2 cells, which lack CD81 expression, or HepG2 cells that have been engineered to express human CD81.

Regarding `C[C@@]1(O)[C@H](O)[C@@H](CO)O[C@H]1n1cnc2c(N)ncnc21` [2′-C-methyladenosine], the “ability to inhibit RNA replication post-infection with HCVcc” value in the experiment with HCVcc (FL-J6/JFH++) is listed as “inhibited HCVcc replication”.

For `COc1ccc2c(O[C@@H]3C[C@H]4C(=O)N[C@]5(C(=O)O)C[C@H]5/C=C\CCCCC[C@H](NC(=O)OC5CCCC5)C(=O)N4C3)cc(-c3csc(NC(C)C)n3)nc2c1` [BILN2061], the “ability to inhibit RNA replication post-infection with HCVcc” value in the experiment with HCVcc (FL-J6/JFH++) is reported as “inhibited HCVcc replication”.

As to `CC(=O)N[C@@H](CS)C(=O)O` [N-acetylcysteine], the HCVcc titer is recorded as 1.06×10^6 TCID50 in the experiment with HCVcc (5 mM N-acetylcysteine in culture) and 3.10×10^6 TCID50 with HCVcc (25 mM N-acetylcysteine in culture). The “levels of HCVcc as determined by TCID50 assay” value in the experiment on HCVcc (additive in cell culture) is recorded as “consistently gave higher levels of HCVcc”.

B1: recombinant form of the large extracellular loop from CD81: recombinant large extracellular loop of CD81, which binds E2 and acts as a receptor for HCV (protein)
chain: FVNKDQIAKDVKQFYDQALQQAVVDDDANNAKAVVKTFHETLDCCGSSTLTALTTSVLKNNLCPSGSNIISNLFKEDCHQKIDDLFSGK
Turning to B1, the “HCVcc infection after preincubation of virus with recombinant protein” value with HCVcc (FL-J6/JFH) is listed as “blocked HCVcc infection”.

B2: large extracellular loop of CD9: large extracellular loop of CD9, a related tetraspanin (control) (protein)
chain: SHKDEVIKEVQEFYKDTYNKLKTKDEPQRETLKAIHYALNCCGLAGGVEQFISDICPKKDVLETFTVKSCPDAIKEVFDNKFHI
For the molecule B2, in the experiment with HCVcc (FL-J6/JFH), the “HCVcc infection after preincubation of virus with recombinant protein” value is recorded as “did not”.
